Reference: patent US11512268B2, “Storage-stable enzyme preparations, their production and use” (BASF SE, priority 2017, dated 2022)

Columns and labels:
Lipolase = target: T1, Lipolase (Thermomyces lanuginosus, UniProt O59952); test: storage stability of lipase (Lipolase activity, pNitrophenol-valerate substrate) in liquid formulations at 37° C.; type: biochemical, Thermomyces lanuginosa; conditions: component (a) 2.5 wt %, Lipolase 0.4 wt %, storage at 37° C.
T1 construct: purchased Sigma-Aldrich
T1 sequence (O59952 23-291): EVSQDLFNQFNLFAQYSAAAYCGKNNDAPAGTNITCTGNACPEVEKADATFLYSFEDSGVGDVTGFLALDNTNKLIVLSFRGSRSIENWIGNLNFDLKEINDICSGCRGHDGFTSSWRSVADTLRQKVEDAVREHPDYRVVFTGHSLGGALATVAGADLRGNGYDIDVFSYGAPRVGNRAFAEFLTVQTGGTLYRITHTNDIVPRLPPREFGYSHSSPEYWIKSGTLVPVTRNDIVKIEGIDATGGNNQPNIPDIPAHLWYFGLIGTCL
Protocol: (§1) The storage stability of Lipase and Protease in water was assessed at 37° C.
(§2) Base test formulations were manufactured by making base formulations I to VI by mixing the components according to Table 1.
(§3) The respective salt (component (a)) or comparative compound was added, if applicable, to the respective base formulation in amounts as indicated in Table 1.
(§4) The amount of enzyme as provided in Table 1 refers to active protein. Either lipase or protease was added, depending on which enzyme activity was measured.
(§5) Lipolase® 100 L (CAS-No. 9001-62-1, EC-No. 232-619-9) was purchased from Sigma-Aldrich. Savinase® 16.0 L (CAS-No. 9014-01-1, EC-No. 232-752-2) was purchased from Sigma-Aldrich.
Lipolase activity at certain points in time as indicated in Table 2 was be determined by employing pNitrophenol-valerate (2.4 mM pNP-C5 in 100 mM Tris pH 8.0, 0.01% Triton X100) as a substrate. The absorption was measured at 20° C. every 30 seconds over 5 minutes at 405 nm. The slope (absorbance increase at 405 nm per minute) of the time dependent absorption-curve is directly proportional to the activity of the lipase.
The lipolytic activity values provided in Table 2 were calculated referring to the 100% value determined in the reference formulation at the time 0.
(§6) The nomenclature of formulations is as follows: the Roman number before the full stop characterizes the base formulation, the Arabian number the type of salt (A.# inventive salt (component (a)); C-(A.#) comparative compound). Zero (“0”): no salt, but diethylene glycol.

Savinase = target: T2, Savinase (Lederbergia lenta, UniProt P29600); test: storage stability of protease (Savinase activity, Suc-AAPF-pNA substrate) in liquid formulations at 37° C.; type: biochemical; conditions: base formulation III., component (a) 2.5 wt %, Savinase 16.0 L 0.5 wt %, storage at 37° C.
T2 construct: purchased Sigma-Aldrich
T2 sequence (P29600 1-269): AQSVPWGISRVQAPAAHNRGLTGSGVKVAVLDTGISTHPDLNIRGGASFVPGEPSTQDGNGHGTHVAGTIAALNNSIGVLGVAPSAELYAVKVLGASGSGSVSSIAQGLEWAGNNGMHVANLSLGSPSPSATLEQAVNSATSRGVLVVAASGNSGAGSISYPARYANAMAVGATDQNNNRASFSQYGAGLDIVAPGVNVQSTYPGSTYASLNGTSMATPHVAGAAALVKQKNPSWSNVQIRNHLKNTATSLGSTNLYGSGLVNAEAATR
Protocol: as §1, §2, §3, §4, §5
Savinase activity at certain points in time as indicated in Table 3 was be determined by employing Succinyl-Ala-Ala-Pro-Phe-p-nitroanilide (Suc-AAPF-pNA, short AAPF) as substrate. pNA is cleaved from the substrate molecule by proteolytic cleavage, resulting in release of yellow color of free pNA which was determined by measuring OD405. Measurement were done at 20° C.
The proteolytic activity values provided in Table 3 were calculated referring to the 100% value determined in the reference formulation at the time 0.
as §6

Row | SMILES | lipase activity (Lipolase; base formulation II., 1 d) | lipase activity (Lipolase; base formulation II., 3 d) | lipase activity (Lipolase; base formulation II., 6 d) | lipase activity (Lipolase; base formulation II., 10 d) | lipase activity (Lipolase; base formulation II., 15 d) | lipase activity (Lipolase; base formulation II., 20 d) | lipase activity (Lipolase; base formulation II., 25 d) | lipase activity (Lipolase; base formulation II., 30 d) | lipase activity (Lipolase; base formulation III., 1 d) | lipase activity (Lipolase; base formulation III., 3 d) | lipase activity (Lipolase; base formulation III., 6 d) | lipase activity (Lipolase; base formulation III., 10 d) | lipase activity (Lipolase; base formulation III., 15 d) | lipase activity (Lipolase; base formulation III., 20 d) | lipase activity (Lipolase; base formulation III., 25 d) | lipase activity (Lipolase; base formulation III., 30 d) | lipase activity (Lipolase; base formulation III., T0) | other results
1 | CC(=O)OCC[N+](C)(C)C [(A.12), Acetylcholine] | 98% | 96% | 95% | 88% | 86% | 80% | 77% | 76% | 98% | 97% | 95% | 91% | 86% | 80% | 78% | 74% |  | protease activity (Savinase; 1 d): 96%; protease activity (Savinase; 3 d): 92%; protease activity (Savinase; 6 d): 80%; protease activity (Savinase; 10 d): 70%; protease activity (Savinase; 15 d): 61%; protease activity (Savinase; 20 d): 50%; protease activity (Savinase; 25 d): 39%; protease activity (Savinase; 30 d): 31%; protease activity (Savinase; T0): 96%
2 | O=C([O-])CC(O)(CC(=O)O)C(=O)O.[Na+] [C-(A.20), monosodium salt of citric acid] |  |  |  |  |  |  |  |  | 92% | 79% | 70% | 51% | 39% | 30% | 22% | 16% | 100% | 
3 | O=C([O-])CC(O)(CC(=O)[O-])C(=O)O.[Na+].[Na+] [C-(A.21), disodium salt of citric acid] |  |  |  |  |  |  |  |  | 93% | 78% | 68% | 50% | 39% | 31% | 25% | 20% | 101% | 
4 | O=C([O-])CC(O)(CC(=O)[O-])C(=O)[O-].[Na+].[Na+].[Na+] [C-(A.22), trisodium salt of citric acid] | 87% | 79% | 67% | 55% | 40% | 33% | 24% | 18% | 92% | 76% | 66% | 48% | 37% | 28% | 23% | 19% | 98% | lipase activity (Lipolase; base formulation II., T0): 95%
